Measured values as given in US9120770B2, “Substituted pyridine and pyrazine compounds as PDE4 inhibitors” (DART NEUROSCIENCE (CAYMAN) LTD., priority 2013, dated 2015).
pEC50: −log10 of the molar value.

Target: PDE4D3 (Homo sapiens, UniProt Q08499)
Sequence (Q08499 1-673 isoform Q08499-2): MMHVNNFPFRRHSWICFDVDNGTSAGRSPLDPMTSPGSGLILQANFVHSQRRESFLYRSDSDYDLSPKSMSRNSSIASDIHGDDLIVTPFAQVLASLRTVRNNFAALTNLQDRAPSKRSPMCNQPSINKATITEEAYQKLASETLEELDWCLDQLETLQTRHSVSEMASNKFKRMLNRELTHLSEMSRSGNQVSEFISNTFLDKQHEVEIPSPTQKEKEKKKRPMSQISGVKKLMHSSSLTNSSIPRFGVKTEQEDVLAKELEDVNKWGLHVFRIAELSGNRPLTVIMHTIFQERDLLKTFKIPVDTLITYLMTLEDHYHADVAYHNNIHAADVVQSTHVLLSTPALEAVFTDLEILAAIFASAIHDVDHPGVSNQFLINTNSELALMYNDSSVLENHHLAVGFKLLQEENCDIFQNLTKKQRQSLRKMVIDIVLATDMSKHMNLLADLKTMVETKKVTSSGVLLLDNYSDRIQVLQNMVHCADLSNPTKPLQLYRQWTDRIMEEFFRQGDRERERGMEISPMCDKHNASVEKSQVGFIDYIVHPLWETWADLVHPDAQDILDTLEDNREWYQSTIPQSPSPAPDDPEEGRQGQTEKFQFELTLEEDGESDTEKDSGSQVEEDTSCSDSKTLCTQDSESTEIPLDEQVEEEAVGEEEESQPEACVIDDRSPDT

| SMILES | pEC50 |
| --- | --- |
| COc1ncc(Cn2cnc(C(F)F)n2)cc1-c1ccnc(OC(F)F)c1 [Example 261, 3-[2-(Difluoromethoxy)pyridin-4-yl]-5-{[3-(difluoromethyl)-1H-1,2,4-triazol-1-yl]methyl}-2-methoxypyridine] | > 7.00 |
| COc1ncc(Cn2cnc(C(F)(F)F)n2)cc1-c1cccc(OC(F)F)c1 [Example 159, 3-[3-(Difluoromethoxy)phenyl]-2-methoxy-5-{[3-(trifluoromethyl)-1H-1,2,4-triazol-1-yl]methyl}pyridine] | 6.00 to 7.00 |
| NC(=O)c1cncc(Cc2cnc(OC(F)F)c(-c3cccc(Cl)c3)c2)c1 [Example 70, 5-{[5-(3-Chlorophenyl)-6-(difluoromethoxy)pyridin-3-yl]methyl}pyridine-3-carboxamide] | 5.00 to 6.00 |
| COc1ncc(Cc2ccc(C(=O)O)cc2)cc1-c1cccc(Cl)c1 [Example 21, 4-{[5-(3-Chlorophenyl)-6-methoxypyridin-3-yl]methyl}benzoic acid] | 6.00 to 7.00 |
| COc1ncc(Cn2ccc(CO)n2)cc1-c1cccc(OC(F)F)c1 [Example 275, [1-({5-[3-(Difluoromethoxy)phenyl]-6-methoxypyridin-3-yl}methyl)-1H-pyrazol-3-yl]methanol] | > 7.00 |
| CCOc1ncc(Cn2cnc(C(F)F)n2)cc1-c1cccc(OC(F)F)c1 [Example 260, 3-[3-(Difluoromethoxy)phenyl]-5-{[3-(difluoromethyl)-1H-1,2,4-triazol-1-yl]methyl}-2-ethoxypyridine] | > 7.00 |
| COc1ncc(Cc2ccc(C(C)(C)O)cc2)cc1-c1cccc(Cl)c1 [Example 250, 2-(4-{[5-(3-Chlorophenyl)-6-methoxypyridin-3-yl]methyl}phenyl)propan-2-ol] | 6.00 to 7.00 |
| Cc1cn(Cc2cnc(OC(F)F)c(-c3cccc(Cl)c3)c2)cn1 [Example 154, 3-(3-Chlorophenyl)-2-(difluoromethoxy)-5-[(4-methyl-1H-imidazol-1-yl)methyl]pyridine] | 6.00 to 7.00 |
| CCCOc1ccc(Cc2cnc(OC(F)F)c(-c3cccc(Cl)c3)c2)cn1 [Example 51, 3-(3-Chlorophenyl)-2-(difluoromethoxy)-5-[(6-propoxypyridin-3-yl)methyl]pyridine] | 6.00 to 7.00 |
| FC(F)Oc1ncc(Cn2cncn2)cc1-c1cccc(OC(F)(F)F)c1 [Example 176, 2-(Difluoromethoxy)-5-(1H-1,2,4-triazol-1-ylmethyl)-3-[3-(trifluoromethoxy)phenyl]pyridine] | 6.00 to 7.00 |
| CCOc1ncc(Cn2cnc(CO)n2)cc1-c1ccnc(OC(F)F)c1 [Example 206, [1-({5-[2-(Difluoromethoxy)pyridin-4-yl]-6-ethoxypyridin-3-yl}methyl)-1H-1,2,4-triazol-3-yl]methanol] | > 7.00 |
| CCOc1ncc(Cn2cnc(CO)n2)nc1-c1cccc(Cl)c1 [Example 212, (1-{[6-(3-Chlorophenyl)-5-ethoxypyrazin-2-yl]methyl}-1H-1,2,4-triazol-3-yl)methanol] | 6.00 to 7.00 |
| CCOc1ncc(Cn2cnc(C3CC3)n2)nc1-c1cccc(OC(F)F)c1 [Example 186, 5-[(3-Cyclopropyl-1H-1,2,4-triazol-1-yl)methyl]-3-[3-(difluoromethoxy)phenyl]-2-ethoxypyrazine] | 5.00 to 6.00 |
| CCOc1ncc(Cn2cnc(CO)n2)cc1-c1cccc(OC(F)F)c1 [Example 201, [1-({5-[3-(Difluoromethoxy)phenyl]-6-ethoxypyridin-3-yl}methyl)-1H-1,2,4-triazol-3-yl]methanol] | > 7.00 |
| CCOc1ncc(Cn2cc(CO)nn2)nc1-c1cccc(Cl)c1 [Example 268, (1-{[6-(3-Chlorophenyl)-5-ethoxypyrazin-2-yl]methyl}-1H-1,2,3-triazol-4-yl)methanol] | 6.00 to 7.00 |
| CCOc1ncc(Cn2cnc(N)n2)nc1-c1cccc(OC(F)F)c1 [Example 237, 1-((6-(3-(Difluoromethoxy)phenyl)-5-ethoxypyrazin-2-yl)methyl)-1H-1,2,4-triazol-3-amine] | 5.00 to 6.00 |
| COc1ncc(Cn2cnc(N)n2)cc1-c1cccc(C)c1 [Example 222, 1-{[6-Methoxy-5-(3-methylphenyl)pyridin-3-yl]methyl}-1H-1,2,4-triazol-3-amine] | 6.00 to 7.00 |
| COC(=O)Cc1ccc(Cc2cnc(OC(F)F)c(-c3cccc(Cl)c3)c2)cc1 [Example 100, Methyl 2-(4-{[5-(3-chlorophenyl)-6-(difluoromethoxy)pyridin-3-yl]methyl}phenyl)acetate] | > 7.00 |
| COc1ncc(Cn2ccnc2)nc1-c1cccc(Cl)c1 [Example 183, 3-(3-Chlorophenyl)-5-(1H-imidazol-1-ylmethyl)-2-methoxypyrazine] | > 7.00 |
| COc1ncc(Cn2cnc(C)n2)nc1-c1cccc(Cl)c1 [Example 132, 3-(3-Chlorophenyl)-2-methoxy-5-[(3-methyl-1H-1,2,4-triazol-1-yl)methyl]pyrazine] | 6.00 to 7.00 |
| CCOc1ncc(Cc2cnc(C(N)=O)nc2)nc1-c1cccc(OC(F)F)c1 [Example 13, 5-({6-[3-(Difluoromethoxy)phenyl]-5-ethoxypyrazin-2-yl}methyl)pyrimidine-2-carboxamide] | > 7.00 |
| COc1ncc(Cc2cc(C)nc(C)c2)cc1-c1cccc(Cl)c1 [Example 61, 3-(3-Chlorophenyl)-5-[(2,6-dimethylpyridin-4-yl)methyl]-2-methoxypyridine] | 5.00 to 6.00 |

| SMILES | pEC50 |
| --- | --- |
| O=C(O)c1ccc(Cc2cnc(OC(F)F)c(-c3cccc(Cl)c3)c2)cn1 [Example 54, 5-{[5-(3-Chlorophenyl)-6-(difluoromethoxy)pyridin-3-yl]methyl}pyridine-2-carboxylic acid] | 5.00 to 6.00 |
| CN(C)c1ncn(Cc2cnc(OC(F)F)c(-c3cccc(Cl)c3)c2)n1 [Example 239, 1-{[5-(3-Chlorophenyl)-6-(difluoromethoxy)pyridin-3-yl]methyl}-N,N-dimethyl-1H-1,2,4-triazol-3-amine] | 6.00 to 7.00 |
| COc1ncc(Cc2cnc(OC(F)F)c(-c3cccc(Cl)c3)c2)cn1 [Example 92, 5-{[5-(3-Chlorophenyl)-6-(difluoromethoxy)pyridin-3-yl]methyl}-2-methoxypyrimidine] | > 7.00 |
| COc1ncc(Cn2cnc(N)n2)cc1-c1cncc(Cl)c1 [Example 228, 1-{[5-(5-Chloropyridin-3-yl)-6-methoxypyridin-3-yl]methyl}-1H-1,2,4-triazol-3-amine] | 5.00 to 6.00 |
| COc1ncc(Cn2ncnc2CO)nc1-c1cccc(Cl)c1 [Example 210, (1-{[6-(3-Chlorophenyl)-5-methoxypyrazin-2-yl]methyl}-1H-1,2,4-triazol-5-yl)methanol] | 5.00 to 6.00 |
| COc1ncc(Cn2cc(C(=O)O)cn2)cc1-c1cccc(Cl)c1 [Example 270, 1-{[5-(3-Chlorophenyl)-6-methoxypyridin-3-yl]methyl}-1H-pyrazole-4-carboxylic acid] | < 5.00 |
| COc1ncc(Cn2cncn2)cc1-c1cccc(S(C)(=O)=O)c1 [Example 9, 3-(3-Methanesulfonylphenyl)-2-methoxy-5-(1H-1,2,4-triazol-1-ylmethyl)pyridine] | < 5.00 |
| COc1ncc(C(F)c2ccc(F)cc2)cc1-c1cccc(Cl)c1 (stereo not shown) [Example 20, 3-(3-Chlorophenyl)-5-[fluoro(4-fluorophenyl)methyl]-2-methoxypyridine] | 6.00 to 7.00 |
| COc1ncc(Cn2nccc2N)cc1-c1cccc(OC(F)F)c1 [Example 233, 1-({5-[3-(Difluoromethoxy)phenyl]-6-methoxypyridin-3-yl}methyl)-1H-pyrazol-5-amine] | 6.00 to 7.00 |
| COc1ncc(Cn2cncn2)cc1-c1cc(Cl)cs1 [Example 142, 3-(4-Chlorothiophen-2-yl)-2-methoxy-5-(1H-1,2,4-triazol-1-ylmethyl)pyridine] | 6.00 to 7.00 |
| COC(=O)c1ncnn1Cc1cnc(OC)c(-c2cccc(Cl)c2)n1 [Example 195, Methyl 1-{[6-(3-chlorophenyl)-5-methoxypyrazin-2-yl]methyl}-1H-1,2,4-triazole-5-carboxylate] | 5.00 to 6.00 |
| COc1ncc(Cc2cnc(C#N)nc2)nc1-c1cccc(OC(F)F)c1 [Example 107, 5-({6-[3-(Difluoromethoxy)phenyl]-5-methoxypyrazin-2-yl}methyl)pyrimidine-2-carbonitrile] | > 7.00 |
| COc1ncc(Cc2cnc(C#N)nc2)cc1-c1cccc(F)c1 [Example 39, 5-{[5-(3-Fluorophenyl)-6-methoxypyridin-3-yl]methyl}pyrimidine-2-carbonitrile] | 5.00 to 6.00 |
| COc1ncc(Cc2ccc(C(C)(C)O)nc2)cc1-c1cccc(Cl)c1 [Example 251, 2-(5-{[5-(3-Chlorophenyl)-6-methoxypyridin-3-yl]methyl}pyridin-2-yl)propan-2-ol] | 6.00 to 7.00 |
| COC(=O)c1ncn(Cc2cnc(OC)c(-c3cccc(OC(F)F)c3)n2)n1 [Example 196, Methyl 1-({6-[3-(difluoromethoxy)phenyl]-5-methoxypyrazin-2-yl}methyl)-1H-1,2,4-triazole-3-carboxylate] | 5.00 to 6.00 |
| COc1cccc(-c2cc(Cn3cnc(N)n3)cnc2OC(F)F)c1 [Example 227, 1-{[6-(Difluoromethoxy)-5-(3-methoxyphenyl)pyridin-3-yl]methyl}-1H-1,2,4-triazol-3-amine] | 6.00 to 7.00 |
| COC(=O)c1ccc(Cc2cnc(OC)c(-c3cccc(Cl)c3)n2)cc1 [Example 85, Methyl 4-{[6-(3-chlorophenyl)-5-methoxypyrazin-2-yl]methyl}benzoate] | 6.00 to 7.00 |
| CCOc1ncc(Cn2cc(CO)cn2)cc1-c1cccc(Cl)c1 [Example 276, (1-{[5-(3-Chlorophenyl)-6-ethoxypyridin-3-yl]methyl}-1H-pyrazol-4-yl)methanol] | > 7.00 |
| CCOc1cccc(-c2cc(Cn3cnc(N)n3)cnc2OC)c1 [Example 224, 1-{[5-(3-Ethoxyphenyl)-6-methoxypyridin-3-yl]methyl}-1H-1,2,4-triazol-3-amine] | 6.00 to 7.00 |
| CCOc1ncc(Cn2cc(CF)nn2)cc1-c1cccc(OC(F)F)c1 [Example 254, 3-[3-(Difluoromethoxy)phenyl]-2-ethoxy-5-{[4-(fluoromethyl)-1H-1,2,3-triazol-1-yl]methyl}pyridine] | 6.00 to 7.00 |
| CC(C)Oc1ccc(Cc2cnc(OC(F)F)c(-c3cccc(Cl)c3)c2)cn1 [Example 50, 3-(3-Chlorophenyl)-2-(difluoromethoxy)-5-{[6-(propan-2-yloxy)pyridin-3-yl]methyl}pyridine] | 5.00 to 6.00 |
